Drawing on the supplement of paper PMC10307832, this text covers relative viability for one cell line.

Common to all, as to test: relative viability (nuclei count vs DMSO), 5 days (fraction); higher = more cells survive
Compound in the assay “Irinotecan + Luminespib”: CCc1c2c(nc3ccc(OC(=O)N4CCC(N5CCCCC5)CC4)cc13)-c1cc3c(c(=O)n1C2)COC(=O)[C@]3(O)CC [Irinotecan] + CCNC(=O)c1noc(-c2cc(C(C)C)c(O)cc2O)c1-c1ccc(CN2CCOCC2)cc1 [Luminespib] (partner 0.01 µM)
An outline of the steps:
(§1)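 Dosing by pin tool came one day after lung cancer cell lines were seeded in 1536-well plates, using either one drug or a fixed anchor-drug dose plus five library-drug doses (not always all listed) in √10 steps. After 5 days, nuclei were counted on 4× images. Relative viability is treated-well nuclei count divided by vehicle-well nuclei count, and values are medians of duplicate plates.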

Compound in the assay “MK-8033 + Trametinib”: Cn1cc(-c2cnc3ccc4ccc(CS(=O)(=O)NCc5ccccn5)cc4c(=O)c3c2)cn1 [MK-8033] + CC(=O)Nc1cccc(-n2c(=O)n(C3CC3)c(=O)c3c(Nc4ccc(I)cc4F)n(C)c(=O)c(C)c32)c1 [Trametinib] (partner 0.02 µM)
An outline of the steps:
as §1

Compound in the assay “MK-8033 + Alpelisib”: Cn1cc(-c2cnc3ccc4ccc(CS(=O)(=O)NCc5ccccn5)cc4c(=O)c3c2)cn1 [MK-8033] + Cc1nc(NC(=O)N2CCC[C@H]2C(N)=O)sc1-c1ccnc(C(C)(C)C(F)(F)F)c1 [Alpelisib] (partner 2 µM)
An outline of the steps: as §1

Compound in the assay “RU-SKI 43 + Trametinib”: CC[C@@H](C)CNCC(=O)N1CCC2=C([C@@H]1COC3=CC=CC(=C3)C)C=CS2 [RU-SKI 43] + CC(=O)Nc1cccc(-n2c(=O)n(C3CC3)c(=O)c3c(Nc4ccc(I)cc4F)n(C)c(=O)c(C)c32)c1 [Trametinib] (partner 0.02 µM)
The method, boiled down:
as §1

For UMC-11, the relative viability with Irinotecan + Luminespib (first compound 0.6325 µM) was determined as 0.569; with Irinotecan + Luminespib (first compound 2 µM), 0.491; with Irinotecan + Luminespib (first compound 6.325 µM), 0.383; in the assay with Irinotecan + Luminespib (first compound 20 µM), 0.192; in the assay with MK-8033 + Trametinib (first compound 0.02 µM), 0.714; with MK-8033 + Trametinib (first compound 0.06325 µM), 0.457. The relative viability in the assay with MK-8033 + Trametinib (first compound 0.2 µM) is 0.604; in the assay with MK-8033 + Trametinib (first compound 0.6325 µM), 0.643; with MK-8033 + Trametinib (first compound 2 µM), 0.642; with MK-8033 + Alpelisib (first compound 0.02 µM) it was 0.988; in the assay with MK-8033 + Alpelisib (first compound 0.06325 µM) it was 0.979; with MK-8033 + Alpelisib (first compound 0.2 µM), 0.958. Further, the relative viability with MK-8033 + Alpelisib (first compound 0.6325 µM) came out at 0.961; with MK-8033 + Alpelisib (first compound 2 µM), 0.986; with RU-SKI 43 + Trametinib (first compound 0.1 µM), 0.691; in the assay with RU-SKI 43 + Trametinib (first compound 0.3162 µM), 0.693; in the assay with RU-SKI 43 + Trametinib (first compound 1 µM), 0.742; in the assay with RU-SKI 43 + Trametinib (first compound 3.162 µM), 0.745. Also, the relative viability in the assay with RU-SKI 43 + Trametinib (first compound 10 µM) came to 0.401.
